According to patent US20220213060A1, “Crystal Form of Quinazolinone Compound and Preparation Method Therefor” (Luoxin Healthcare Science and Technology Development …, priority 2019, published 2022):
Read-outs that look alike come from different tables or passages of the source.

Key:
[1] = tested on: human breast cancer T47D (PIK3CA H1047R mutation); test: In vivo pharmacodynamic study, T47D nude mouse subcutaneous xenograft tumor model; parameters: species or system BALB/c nude mice
Description: The phenotype of human T47D breast cancer cells is HR+/HER2−, and it carries PIK3CA H1047R mutation. This experiment evaluated the efficacy of the crystal form A of the compound represented by formula (I) in a human breast cancer xenograft tumor model.
Cell culture: Human breast cancer T47D cells were cultured in vitro in a single layer, the culture condition was RPMI-1640 medium with 0.2 U/mL bovine insulin and 10% fetal bovine serum, and the cells were incubated in 5% CO2 at 37° C. Digestion and passage treatment with trypsin-EDTA was carried out twice a week. When the cell saturation was 80%-90% and the number reached the requirement, the cells were collected, counted and inoculated.
Animals: BALB/c nude mice, female, 6-8 weeks old, weighing 18-20 g. A total of 75 animals were required, and provided by Shanghai Bikai experimental animal Co., Ltd or other qualified suppliers.
Tumor inoculation: Estrogen tablets (0.18 mg/tablet) were subcutaneously inoculated on the left back of each mouse. Three days later, 0.2 mL (10×10^6 cells) of T47D cells (with matrigel in a volume ratio of 1:1) were subcutaneously inoculated on the right back of each mouse, group administration was started when the average tumor volume reached 150 mm^3-200 mm^3.
Tumor-bearing mice in each administration group had good tolerance to the tested compounds.

[2] = Sprague Dawley (SD) rat absorption test (pharmacokinetics); type: in vivo, SD rats; conditions: for C0 / Tmax / bioavailability / Tmax at 7 days / Vd / AUC(0-t) / clearance / half-life / Cmax / half-life at 7 days: Sprague-Dawley, rat, plasma; for AUC0-last / t1/2: listed as crystal form A of the compound represented by formula (I); for Vd: read-out: Vdss
Description: SD rats were given the crystal form A of the compound represented by formula (I) by single or multiple oral gavage and single intravenous injection respectively, with 6 rats in each group, half male and half female. According to the results of pharmacodynamic and toxicological experiments, the single oral gavage doses were 3, 10 and 30 mg/kg respectively; the multiple doses were 10 mg/kg, once a day for 7 consecutive days; the single intravenous dose was 1 mg/kg. According to the drug plasma concentration-time curve, the pharmacokinetic parameters were calculated. In this experiment, SD rats were provided by Beijing Vital River Experimental Animal Technology Co., Ltd., and were divided into 4 groups (3/sex/group) according to their similar weight. The vehicle for the intravenous group was 5% HP-betaCD/5% Solutol aqueous solution (pH=8); the vehicle for the oral group was 0.5% MC/0.2% Tw80 aqueous solution. Plasma samples were collected by jugular vein puncture in rats.

MDA-MB-468 = test: Akt phosphorylation inhibition in MDA-MB-468 cells (high expression of PI3Kβ); type: cell-based; conditions: MDA-MB-468 cell line with high expression of PI3Kβ
[3] = 10 mg/kg, oral once a day for 42 days
[4] = 10 mg/kg, oral once a day for 42 days, listed as crystal form A of the compound represented by formula (I)
[5] = 20 mg/kg, oral once a day for 42 days
[6] = 20 mg/kg, oral once a day for 42 days, listed as crystal form A of the compound represented by formula (I)
[7] = 40 mg/kg, oral once a day for 42 days
[8] = 40 mg/kg, oral once a day for 42 days, listed as crystal form A of the compound represented by formula (I)
[9] = female SD rats, oral, 3 mg/kg, single
[10] = male SD rats, oral, 3 mg/kg, single
[11] = female SD rats, vein, 1 mg/kg, single
[12] = female, iv, 1 mg/kg, female SD rats, vein, single
[13] = female, po, 3 mg/kg, female SD rats, single
[14] = female, po, 10 mg/kg, female SD rats, oral, 10 mg/kg once a day, Day 7
[15] = female, po, 10 mg/kg, female SD rats, oral, 10 mg/kg, Day 1
[16] = female, po, 30 mg/kg, female SD rats, single
[17] = male SD rats, vein, 1 mg/kg, single
[18] = male, iv, 1 mg/kg, male SD rats, vein, single
[19] = male, po, 3 mg/kg, male SD rats, single
[20] = male, po, 10 mg/kg, male SD rats, oral, 10 mg/kg once a day, Day 7
[21] = male, po, 10 mg/kg, male SD rats, oral, 10 mg/kg, Day 1
[22] = male, po, 30 mg/kg, male SD rats, single

## CNC(=O)[C@H](C)Cn1cnc2ccc(-c3cnc(OC)c(NS(=O)(=O)c4ccc(F)cc4F)c3)cc2c1=O
[1]; 10 mg/kg group
  Anti-tumor effect (in words): strong anti-tumor effect
[1]; [3]
  T/C %: 50.40%
  TGI %: 67.58%
[1]; [4]
  T/C %: 50.40%
  TGI %: 67.58%
[1]; 20 mg/kg group
  Anti-tumor effect (in words): strong anti-tumor effect
[1]; [5]
  T/C %: 44.70%
  TGI %: 72.56%
[1]; [6]
  T/C %: 44.70%
  TGI %: 72.56%
[1]; 40 mg/kg group
  Anti-tumor effect (in words): significant anti-tumor effects
[1]; [7]
  T/C %: 37.91%
  TGI %: 84.71%
[1]; [8]
  T/C %: 37.91%
  TGI %: 84.71%
[1]; oral once a day for 42 days
  Dose to play the effect: 10 mg/kg
[2]; iv, female SD rats, vein, 1 mg/kg, single
  C0: 14.2 µM
[2]; iv, male SD rats, vein, 1 mg/kg, single
  C0: 12.7 µM
[2]; [9]
  Tmax: 0.5 h
  bioavailability: 53.1%
[2]; female SD rats, oral, 10 mg/kg once a day, Day 7
  Tmax at 7 days: 0.5 h
[2]; female SD rats, oral, 10 mg/kg, Day 1
  Tmax: 0.667 ± 0.289 h
[2]; female SD rats, oral, 30 mg/kg, single
  Tmax: 0.5 h
[2]; [10]
  Tmax: 0.417 ± 0.144 h
  bioavailability: 34.7%
[2]; male SD rats, oral, 10 mg/kg once a day, Day 7
  Tmax at 7 days: 0.667 h
[2]; male SD rats, oral, 10 mg/kg, Day 1
  Tmax: 0.5 h
[2]; male SD rats, oral, 30 mg/kg, single
  Tmax: 0.667 ± 0.289 h
[2]; [11]
  AUC0-last: 17.4 µM·h
  t1/2: 3.26 h
[2]; female, iv, 1 mg/kg, female SD rats, vein, 1 mg/kg, single
  Vd: 0.257 ± 0.0227 L/kg
[2]; [12]
  AUC(0-t): 9.89 ± 1.41 µM·h
  clearance: 3.12 ± 0.431 mL/min/kg
  half-life: 1.63 ± 0.809 h
[2]; [13]
  AUC(0-t): 27.7 ± 8.72 µM·h
  Cmax: 6.39 ± 1.71 µM
  half-life: 2.71 h
[2]; [14]
  AUC(0-t): 86 ± 19.9 µM·h
  Cmax: 20.5 ± 4.6 µM
  half-life at 7 days: 3.74 h
[2]; [15]
  AUC(0-t): 60.9 ± 10.9 µM·h
  Cmax: 12.1 ± 3.69 µM
  half-life: 2.92 h
[2]; [16]
  AUC(0-t): 177 ± 48 µM·h
  Cmax: 39.1 µM
  half-life: 2.72 h
[2]; [17]
  AUC0-last: 9.89 µM·h
  t1/2: 1.63 h
[2]; male, iv, 1 mg/kg, male SD rats, vein, 1 mg/kg, single
  Vd: 0.265 ± 0.05 L/kg
[2]; [18]
  AUC(0-t): 17.4 ± 4.79 µM·h
  clearance: 1.79 ± 0.457 mL/min/kg
  half-life: 3.26 ± 1.13 h
[2]; [19]
  AUC(0-t): 10.3 ± 4.6 µM·h
  Cmax: 4.77 ± 1.01 µM
  half-life: 2.26 h
[2]; [20]
  AUC(0-t): 48.5 ± 4.64 µM·h
  Cmax: 13.9 ± 1.61 µM
  half-life at 7 days: 3.95 h
[2]; [21]
  AUC(0-t): 23.7 ± 0.721 µM·h
  Cmax: 6.8 ± 0.583 µM
  half-life: 2.49 h
[2]; [22]
  AUC(0-t): 45.3 ± 10.9 µM·h
  Cmax: 14.5 ± 4.73 µM
  half-life: 2.61 h
MDA-MB-468
  Selectivity PI3Kα over PI3Kβ, Akt phosphorylation inhibitory activity in cells: 195 times
